Source: the supplement of paper PMC10307832

Columns and labels:
Experiment in all cases: relative viability (nuclei count vs DMSO), 5 days (fraction); higher = more cells survive
BGJ398 + Pemetrexed = compound: CCN1CCN(c2ccc(Nc3cc(N(C)C(=O)Nc4c(Cl)c(OC)cc(OC)c4Cl)ncn3)cc2)CC1 [BGJ398] + Nc1nc2[nH]cc(CCc3ccc(C(=O)N[C@@H](CCC(=O)O)C(=O)O)cc3)c2c(=O)[nH]1 [Pemetrexed] (partner 0.2 µM)
Method in brief: (§1)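 Lung cancer cell lines were seeded in 1536-well plates and dosed by pin tool the next day, with either a single drug or a fixed anchor-drug dose combined with five library-drug doses (not always all listed) spaced in √10 steps. Five days later, one step fixed the cells and stained their nuclei (final 0.05% Triton X-100, 1% formaldehyde, 1 ug/ml Hoechst), and nuclei were counted on 4× images. Relative viability is the nuclei count in treated wells divided by the count in vehicle wells, and each value is the median of duplicate plates.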

BGJ398 + Olaparib = compound: CCN1CCN(c2ccc(Nc3cc(N(C)C(=O)Nc4c(Cl)c(OC)cc(OC)c4Cl)ncn3)cc2)CC1 [BGJ398] + O=C(c1cc(Cc2n[nH]c(=O)c3ccccc23)ccc1F)N1CCN(C(=O)C2CC2)CC1 [Olaparib] (partner 8 µM)
Method in brief: as §1

[1] = compound: C1=CC2=NC=CN=C2C=C1/C=C/3\C(=O)NC(=O)S3 + C[C@]1(O)C[C@@H](c2nc(-c3ccc4ccc(-c5ccccc5)nc4c3)c3c(N)nccn32)C1 [Linsitinib] (partner 1 µM)
Method in brief: as §1

BGJ398 + Crizotinib = compound: CCN1CCN(c2ccc(Nc3cc(N(C)C(=O)Nc4c(Cl)c(OC)cc(OC)c4Cl)ncn3)cc2)CC1 [BGJ398] + C[C@@H](Oc1cc(-c2cnn(C3CCNCC3)c2)cnc1N)c1c(Cl)ccc(F)c1Cl [Crizotinib] (partner 1 µM)
Method in brief: as §1

| Cell Line | relative viability (BGJ398 + Pemetrexed; first compound 0.01 µM) | relative viability (BGJ398 + Pemetrexed; first compound 0.03162 µM) | relative viability (BGJ398 + Pemetrexed; first compound 0.1 µM) | relative viability (BGJ398 + Pemetrexed; first compound 0.3162 µM) | relative viability (BGJ398 + Pemetrexed; first compound 1 µM) | relative viability (BGJ398 + Olaparib; first compound 0.01 µM) | relative viability (BGJ398 + Olaparib; first compound 0.03162 µM) | relative viability (BGJ398 + Olaparib; first compound 0.1 µM) | relative viability (BGJ398 + Olaparib; first compound 0.3162 µM) | relative viability (BGJ398 + Olaparib; first compound 1 µM) | relative viability ([1]; first compound 0.02 µM) | relative viability ([1]; first compound 0.06325 µM) | relative viability ([1]; first compound 0.2 µM) | relative viability ([1]; first compound 0.6325 µM) | relative viability ([1]; first compound 2 µM) | relative viability (BGJ398 + Crizotinib; first compound 0.01 µM) | relative viability (BGJ398 + Crizotinib; first compound 0.03162 µM) | relative viability (BGJ398 + Crizotinib; first compound 0.1 µM) | relative viability (BGJ398 + Crizotinib; first compound 0.3162 µM) | relative viability (BGJ398 + Crizotinib; first compound 1 µM) |
| --- | --- | --- | --- | --- | --- | --- | --- | --- | --- | --- | --- | --- | --- | --- | --- | --- | --- | --- | --- | --- |
| NCI-H1975 | 0.274 | 0.309 | 0.301 | 0.291 | 0.298 | 0.809 | 0.856 | 0.887 | 0.825 | 0.781 | 0.819 | 1.01 | 1.09 | 0.884 | 0.934 | 1.03 | 0.979 | 1.1 | 1.07 | 0.948 |
| CAL-12T | 1.17 | 1.21 | 1.1 | 1.34 | 1.01 | 0.688 | 0.819 | 0.613 | 0.773 | 0.666 | 0.679 | 0.844 | 0.953 | 0.881 | 0.839 | 0.68 | 0.796 | 0.548 | 0.811 | 0.631 |
| HCC-44 | 0.6 | 0.67 | 0.656 | 0.649 | 0.654 | 0.963 | 0.952 | 1.02 | 0.931 | 0.953 | 0.691 | 0.628 | 0.675 | 0.607 | 0.674 | 0.751 | 0.738 | 0.86 | 0.817 | 0.701 |
| EKVX | 0.385 | 0.403 | 0.452 | 0.38 | 0.378 | 0.872 | 0.884 | 0.812 | 0.74 | 0.696 | 0.772 | 0.845 | 0.983 | 0.981 | 0.945 | 0.819 | 0.919 | 0.901 | 0.991 | 0.917 |
| NCI-H1651 | 0.544 | 0.542 | 0.615 | 0.588 | 0.423 | 0.183 | 0.169 | 0.188 | 0.165 | 0.162 | 0.894 | 1.03 | 0.989 | 0.916 | 0.939 | 0.843 | 0.865 | 0.874 | 0.876 | 0.892 |
| NCI-H1944 | 0.652 | 0.635 | 0.502 | 0.495 | 0.606 | 0.432 | 0.416 | 0.425 | 0.385 | 0.445 | 1.18 | 1.22 | 1.22 | 0.944 | 1.12 | 0.994 | 1.07 | 1.13 | 1.09 | 1.19 |
| NCI-H1703 |  |  |  |  |  | 0.342 | 0.396 | 0.379 | 0.364 | 0.543 | 1.04 | 1.13 | 1.1 | 0.696 | 0.741 | 0.694 | 1.17 | 0.796 | 0.638 | 0.863 |
| Calu-6 |  |  |  |  |  | 0.599 | 0.605 | 0.578 | 0.58 | 0.59 | 0.946 | 1.13 | 1.05 | 0.899 | 0.876 | 0.737 | 0.86 | 0.948 | 0.745 | 0.781 |
| EBC-1 |  |  |  |  |  | 0.717 | 0.717 | 0.679 | 0.737 | 0.668 | 0.88 | 1.22 | 0.922 | 0.953 | 0.925 | 0.198 | 0.201 | 0.17 | 0.199 | 0.197 |
